The test system of one experiment is IRE1α. The conditions noted are these: Fig. 1b; read-out: IC50 of reported IRE1α inhibitor; cited from earlier work.
Another experiment concerns the target ERBB2 (HER2) (Homo sapiens, UniProt P04626). Description: Kinase profiling (SelectScreen), ZLYTE. The class given is biochemical. The method, then:
(§1) Kinase profiling was conducted by the SelectScreen Kinase Profiling Services (Thermo Fisher), using Z′-LYTE, Adapta, or LanthaScreen Eu Kinase Binding Assay for different kinases. The kinome phylogenetic tree was generated using the KinMap web portal.

In a further experiment the target is MAPK1 (ERK2) (Homo sapiens, UniProt P28482). Description: Kinase profiling (SelectScreen), ZLYTE. The class given is biochemical. The method, then: as §1
Sequence of MAPK1 (ERK2) (P28482 whole entry): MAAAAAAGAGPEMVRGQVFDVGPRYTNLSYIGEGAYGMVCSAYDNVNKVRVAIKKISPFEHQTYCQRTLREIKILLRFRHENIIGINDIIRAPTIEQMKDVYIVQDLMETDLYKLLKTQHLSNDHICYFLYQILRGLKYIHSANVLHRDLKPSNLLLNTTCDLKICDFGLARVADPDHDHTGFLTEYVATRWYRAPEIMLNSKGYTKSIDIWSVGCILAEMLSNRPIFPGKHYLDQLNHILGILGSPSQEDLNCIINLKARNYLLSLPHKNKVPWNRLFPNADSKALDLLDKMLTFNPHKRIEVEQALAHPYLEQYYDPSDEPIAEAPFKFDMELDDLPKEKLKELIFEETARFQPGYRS
The target in another experiment is EEF2K (Homo sapiens, UniProt O00418). Kind of experiment: Kinase profiling (SelectScreen), ZLYTE. The class given is biochemical. The method, then:
as §1

The target in the next experiment is CSNK1G2 (CK1 gamma 2) (Homo sapiens, UniProt P78368). Description: Kinase profiling (SelectScreen), ZLYTE. The class given is biochemical. The method, then:
as §1

Another experiment has as its target DAPK3 (ZIPK) (Homo sapiens, UniProt O43293). Kind of experiment: Kinase profiling (SelectScreen), ZLYTE. The class given is biochemical. The method, then:
as §1

The target in the next experiment is SYK (Homo sapiens, UniProt P43405). Description: Kinase profiling (SelectScreen), ZLYTE. The class given is biochemical. The method, then:
as §1

Another experiment has as its target TEK (Tie2) (Homo sapiens, UniProt Q02763). Description: Kinase profiling (SelectScreen), ZLYTE. The class given is biochemical. The method, then:
as §1

Another experiment has as its target MAP2K1 (MEK1) (Homo sapiens, UniProt Q02750). Description: Kinase profiling (SelectScreen), ZLYTE. The class given is biochemical. The conditions noted are these: IA107 at 5 μM; ATP 100 μM. The method, then:
as §1

The next experiment concerns the target NEK1 (Homo sapiens, UniProt Q96PY6). Description: Kinase profiling (SelectScreen), ZLYTE. The class given is biochemical. The method, then:
as §1

The next experiment deals with T1, phosphorylated IRE1α (Homo sapiens, UniProt O75460).
T1 construct: Human IRE1α kinase and RNase domain (residues 547–977) was subcloned into pLIB plasmid; His tag (with TEV cleavage site) (N, cleaved yes); made in house; host or cells: Sf9 insect cells, baculovirus (Bac-to-Bac)
Description: Microscale thermophoresis (MST), p-IRE1α. The class given is binding. The method, then: Dephosphorylated IRE1α protein and phosphorylated IRE1α protein were labeled and purified using Protein Labeling Kit RED-NHS 2nd Generation (NanoTemper, MO-L011), following the manufacturer’s protocol. The labeling buffer contained 50 mM HEPES, pH 7.5, 200 mM NaCl, 2% glycerol, 0.5 mM TCEP, 0.05% tween20. MST experiments were performed using the Monolith Nt.115 instrument (NanoTemper), and binding experiments were conducted according to the instrument’s instructions. Compounds were serially diluted 2-fold and incubated with labeled IRE1α protein at a final concentration of 20 nM. The highest compound concentration measured was 250 μM with a final DMSO concentration of 2.5%. Measurements were carried out using the red detector with 60% excitation power. Data were analyzed using the manufacturer’s software, and results from three individual measurements were merged for analysis.

In a further experiment the target is IRE1β (ERN2) (Homo sapiens, UniProt Q76MJ5). Kind of experiment: LanthaScreen Eu kinase binding assay, IRE1β. The method, then: LanthaScreen^TM Eu kinase binding assays were conducted by SelectScreen Kinase Profiling Services (Thermo Fisher) using Alexa Fluor conjugated kinase tracer, tagged kinase protein, and Eu-labeled anti-tag antibody. The binding of the tracer to the kinase will form the tracer-kinase complex, resulting in a high FRET signal with the Eu-labeled anti-tag antibody. Displacement of the tracer by a kinase inhibitor led to a decreased FRET signal. […] Buffer A containing 50 mM HEPES pH 7.5, 0.01% BRIJ-35, 10 mM MgCl2, and 1 mM EGTA was used.
Sequence of IRE1β (ERN2) (Q76MJ5 35-926): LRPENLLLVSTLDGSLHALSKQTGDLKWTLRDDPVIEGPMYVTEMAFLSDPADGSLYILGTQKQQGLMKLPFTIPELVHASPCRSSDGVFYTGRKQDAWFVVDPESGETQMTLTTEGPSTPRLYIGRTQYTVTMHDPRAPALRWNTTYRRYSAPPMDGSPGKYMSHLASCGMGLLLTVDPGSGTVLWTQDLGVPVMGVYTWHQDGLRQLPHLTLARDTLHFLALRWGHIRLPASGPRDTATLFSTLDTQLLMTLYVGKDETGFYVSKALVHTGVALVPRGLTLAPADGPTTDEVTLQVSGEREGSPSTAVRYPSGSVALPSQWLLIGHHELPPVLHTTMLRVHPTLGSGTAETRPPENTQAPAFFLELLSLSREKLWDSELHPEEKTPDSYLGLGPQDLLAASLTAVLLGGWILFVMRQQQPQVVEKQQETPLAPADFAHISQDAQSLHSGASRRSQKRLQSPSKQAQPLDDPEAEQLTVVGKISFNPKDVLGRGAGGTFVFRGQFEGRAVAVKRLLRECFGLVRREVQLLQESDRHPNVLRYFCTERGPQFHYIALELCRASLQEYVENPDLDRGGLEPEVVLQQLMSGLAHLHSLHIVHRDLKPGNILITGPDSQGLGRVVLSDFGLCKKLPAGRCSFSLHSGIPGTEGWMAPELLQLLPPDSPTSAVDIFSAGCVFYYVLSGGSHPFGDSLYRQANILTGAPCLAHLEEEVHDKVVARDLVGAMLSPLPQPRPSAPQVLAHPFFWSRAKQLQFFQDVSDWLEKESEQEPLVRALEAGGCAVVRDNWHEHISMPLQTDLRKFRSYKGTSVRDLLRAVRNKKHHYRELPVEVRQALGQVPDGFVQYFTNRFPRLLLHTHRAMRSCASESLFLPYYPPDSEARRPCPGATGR
as §1
On the technique in general: Time-resolved FRET reads energy transfer from a long-lived donor to a nearby acceptor.

A further experiment deals with T2, IRE1α in A549 cells (Homo sapiens, UniProt O75460).
T2 construct: endogenous in cells; host or cells: A549 cells
T2 sequence (O75460 19-977): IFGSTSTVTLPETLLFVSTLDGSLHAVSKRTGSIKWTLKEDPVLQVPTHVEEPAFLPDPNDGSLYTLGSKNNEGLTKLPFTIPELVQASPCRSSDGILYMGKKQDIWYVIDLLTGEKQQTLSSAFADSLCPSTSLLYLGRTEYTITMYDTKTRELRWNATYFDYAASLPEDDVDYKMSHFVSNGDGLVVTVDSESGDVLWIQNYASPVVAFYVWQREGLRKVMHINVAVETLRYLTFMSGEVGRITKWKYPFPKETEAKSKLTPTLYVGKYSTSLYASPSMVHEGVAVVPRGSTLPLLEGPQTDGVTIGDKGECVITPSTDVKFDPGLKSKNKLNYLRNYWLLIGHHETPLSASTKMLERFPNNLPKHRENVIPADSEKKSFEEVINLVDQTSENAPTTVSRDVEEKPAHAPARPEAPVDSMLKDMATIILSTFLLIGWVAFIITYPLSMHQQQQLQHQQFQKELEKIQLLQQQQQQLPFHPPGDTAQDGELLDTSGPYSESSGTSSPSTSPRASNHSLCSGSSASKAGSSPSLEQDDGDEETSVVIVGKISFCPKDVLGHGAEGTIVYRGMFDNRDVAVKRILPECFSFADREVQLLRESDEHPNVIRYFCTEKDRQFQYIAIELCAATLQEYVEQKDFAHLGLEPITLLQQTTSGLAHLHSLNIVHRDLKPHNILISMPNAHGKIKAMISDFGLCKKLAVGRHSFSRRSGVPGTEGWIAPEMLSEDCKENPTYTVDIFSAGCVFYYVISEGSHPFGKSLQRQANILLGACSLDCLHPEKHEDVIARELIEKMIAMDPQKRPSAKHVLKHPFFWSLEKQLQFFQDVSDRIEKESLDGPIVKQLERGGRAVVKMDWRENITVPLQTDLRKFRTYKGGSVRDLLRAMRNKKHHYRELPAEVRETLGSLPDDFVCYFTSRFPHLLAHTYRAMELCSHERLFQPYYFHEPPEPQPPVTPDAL
Kind of experiment: Cellular thermal shift assay (CETSA) in A549 cells. The class given is cell-based. The method, then: A549 cells were harvested and seeded into 100 mm standard cell culture dishes at 80% confluency and cultured overnight. For the IA107 experiment, cells were gently washed with pre-cooled DPBS (Gibco,14190169) and lysed in RIPA buffer (Sigma, R0278) supplemented with phosphatase inhibitor (Roch, 4906845001) and 1× protease inhibitor cocktail (Sigma, P8340) for 30 min on ice. Cell lysates were centrifuged at 18,000 × g for 30 min at 4 °C and the supernatants were collected. The lysates were collected together and then aliquoted into 550 μL, the aliquots were incubated with different concentrations of IA107 with a final concentration of 0.1% DMSO for 30 min at room temperature. […]
For the IAPD1 experiment, A549 cells were treated with different concentrations of IAPD1 or DMSO for 4 h (final 0.1% DMSO). […] Lysates were collected by scraping and centrifuged at 18,000 × g for 30 min at 4 °C, and the protein concentrations of the supernatants were quantified using a BCA protein assay kit (Thermo Scientific, 23227) and diluted to 4 μg/μL, then cell lysate was aliquoted into 10 PCR tubes, with 50 μL of lysate per tube. […] After heating, samples were centrifuged at 18,000 × g for 30 min at 4 °C, and supernatants were collected and analyzed by western blot using the method and antibodies aforementioned.

The source of these data is paper PMC12475274, “Harnessing indole scaffolds to identify small-molecule IRE1α inhibitors modulating XBP1 mRNA splicing” (Nature Communications, 2025).

“And” between values parts separate entries of the source, which are not always exact repeats. Equal values may be shown once. “Also recorded” adds a separate entry of the source.

Sequence of CSNK1G2 (CK1 gamma 2) (P78368 whole entry): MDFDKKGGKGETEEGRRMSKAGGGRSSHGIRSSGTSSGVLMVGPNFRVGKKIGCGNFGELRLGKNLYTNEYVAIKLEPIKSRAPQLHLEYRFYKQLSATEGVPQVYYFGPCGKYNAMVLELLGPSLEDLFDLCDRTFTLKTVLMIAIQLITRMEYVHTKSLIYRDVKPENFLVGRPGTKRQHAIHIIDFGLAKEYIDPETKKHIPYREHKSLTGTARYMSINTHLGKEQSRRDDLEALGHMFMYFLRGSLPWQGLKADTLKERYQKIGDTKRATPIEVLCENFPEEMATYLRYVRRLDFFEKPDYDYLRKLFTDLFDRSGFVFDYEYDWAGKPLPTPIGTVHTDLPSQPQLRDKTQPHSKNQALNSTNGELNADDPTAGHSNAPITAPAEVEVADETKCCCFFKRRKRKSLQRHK
Sequence of ERBB2 (HER2) (P04626 23-1255): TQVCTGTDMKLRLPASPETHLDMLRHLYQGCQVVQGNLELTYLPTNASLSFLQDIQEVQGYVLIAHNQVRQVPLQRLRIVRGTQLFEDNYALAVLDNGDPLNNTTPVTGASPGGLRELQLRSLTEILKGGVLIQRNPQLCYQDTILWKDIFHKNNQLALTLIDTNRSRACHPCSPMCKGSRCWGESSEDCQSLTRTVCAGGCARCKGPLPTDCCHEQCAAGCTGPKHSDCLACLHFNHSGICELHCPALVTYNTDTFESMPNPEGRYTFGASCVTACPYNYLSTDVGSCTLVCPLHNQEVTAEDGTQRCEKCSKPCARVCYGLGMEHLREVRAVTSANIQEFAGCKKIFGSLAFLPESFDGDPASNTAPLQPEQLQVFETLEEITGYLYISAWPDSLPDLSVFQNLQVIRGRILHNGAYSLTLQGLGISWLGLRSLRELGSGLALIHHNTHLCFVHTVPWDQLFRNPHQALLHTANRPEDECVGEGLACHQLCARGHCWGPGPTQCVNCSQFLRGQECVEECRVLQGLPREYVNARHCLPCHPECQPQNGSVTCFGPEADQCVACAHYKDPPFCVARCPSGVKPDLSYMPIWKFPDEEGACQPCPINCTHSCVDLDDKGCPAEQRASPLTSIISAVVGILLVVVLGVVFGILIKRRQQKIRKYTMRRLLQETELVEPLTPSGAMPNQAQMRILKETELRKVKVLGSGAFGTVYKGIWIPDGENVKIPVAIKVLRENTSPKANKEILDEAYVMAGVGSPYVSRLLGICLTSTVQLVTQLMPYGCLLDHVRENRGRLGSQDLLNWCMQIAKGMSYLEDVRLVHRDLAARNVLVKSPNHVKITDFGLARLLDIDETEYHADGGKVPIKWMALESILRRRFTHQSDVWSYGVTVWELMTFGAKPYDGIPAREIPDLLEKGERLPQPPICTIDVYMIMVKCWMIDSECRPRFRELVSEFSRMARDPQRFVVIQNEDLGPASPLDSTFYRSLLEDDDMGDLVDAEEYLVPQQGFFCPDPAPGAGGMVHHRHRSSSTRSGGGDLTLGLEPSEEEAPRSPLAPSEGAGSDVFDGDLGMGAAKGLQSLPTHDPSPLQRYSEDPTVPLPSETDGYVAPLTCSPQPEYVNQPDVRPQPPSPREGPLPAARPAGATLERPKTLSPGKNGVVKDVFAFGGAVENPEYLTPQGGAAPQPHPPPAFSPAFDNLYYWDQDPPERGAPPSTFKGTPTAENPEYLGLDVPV
Sequence of TEK (Tie2) (Q02763 23-1124): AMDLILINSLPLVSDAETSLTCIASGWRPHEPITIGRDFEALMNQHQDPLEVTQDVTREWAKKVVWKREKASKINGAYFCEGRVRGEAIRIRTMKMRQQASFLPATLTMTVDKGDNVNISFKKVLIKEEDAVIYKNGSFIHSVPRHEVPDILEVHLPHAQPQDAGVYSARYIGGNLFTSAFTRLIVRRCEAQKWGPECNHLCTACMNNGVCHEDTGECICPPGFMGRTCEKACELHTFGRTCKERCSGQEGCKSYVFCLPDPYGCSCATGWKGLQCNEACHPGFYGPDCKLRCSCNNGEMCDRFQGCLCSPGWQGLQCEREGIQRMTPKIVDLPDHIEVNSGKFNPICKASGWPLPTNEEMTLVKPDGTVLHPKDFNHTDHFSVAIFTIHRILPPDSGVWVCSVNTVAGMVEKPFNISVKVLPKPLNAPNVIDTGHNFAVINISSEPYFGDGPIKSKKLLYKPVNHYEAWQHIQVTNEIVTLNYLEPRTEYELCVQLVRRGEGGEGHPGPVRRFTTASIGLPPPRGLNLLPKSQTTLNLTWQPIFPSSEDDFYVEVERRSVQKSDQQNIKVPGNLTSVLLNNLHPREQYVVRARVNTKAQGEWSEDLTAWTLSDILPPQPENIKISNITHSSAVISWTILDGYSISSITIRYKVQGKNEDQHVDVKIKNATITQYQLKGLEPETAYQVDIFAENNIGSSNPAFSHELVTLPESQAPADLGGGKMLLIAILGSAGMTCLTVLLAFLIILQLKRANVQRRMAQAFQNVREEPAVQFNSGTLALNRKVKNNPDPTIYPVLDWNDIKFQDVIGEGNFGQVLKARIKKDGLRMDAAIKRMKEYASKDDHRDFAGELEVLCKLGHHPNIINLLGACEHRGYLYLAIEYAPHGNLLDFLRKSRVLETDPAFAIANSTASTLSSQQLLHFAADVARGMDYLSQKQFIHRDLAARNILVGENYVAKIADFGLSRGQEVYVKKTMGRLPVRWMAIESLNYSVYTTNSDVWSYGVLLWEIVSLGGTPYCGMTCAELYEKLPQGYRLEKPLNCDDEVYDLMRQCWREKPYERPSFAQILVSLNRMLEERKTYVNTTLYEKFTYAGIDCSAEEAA

Consider `Cc1ccc2c(NS(=O)(=O)c3ccccc3Cl)cccc2c1Oc1ncccc1-c1ccnc(N[C@H]2CCCNC2)n1` [KIRA8], for which the IC50 (in general, the point on the concentration scale where inhibition reaches its midpoint) in the experiment with IRE1α was 6 nM.

In the case of `Cc1c(CCC(=O)O)c2cc(Br)ccc2n1C(=O)c1ccccc1` [IA107], the inhibition (commonly the relative decrease from the control value, in per cent) at 5 µM against ERBB2 (HER2) is -3%; on MAPK1 (ERK2) it was 2%; on EEF2K, 5%; against CSNK1G2 (CK1 gamma 2), 6%; at DAPK3 (ZIPK), 1%; against SYK, 3%. Besides, the inhibition at 5 µM against TEK (Tie2) stood at 6%; against MAP2K1 (MEK1) it was 3%; at NEK1 it was 17%; on IRE1β (ERN2) (kinase profiling, ERN2, LanthaScreen Binding, IA107 at 5 μM), 70%. On phosphorylated IRE1α, the Kd – broadly, the free concentration of one partner at which half of the binding sites on the other are occupied at equilibrium, for simple one-to-one binding – is 152 nM. The “IRE1β Kinase Displacement(%)” value on IRE1β (ERN2) (16700 μM as printed) was 87.04% and 84.54%. At IRE1β (ERN2) (LanthaScreen Eu kinase binding assay, read-out: IRE1β (ERN2) kinase domain IC50), the IC50 came to 1440 nM. Also, the “selectivity for IRE1α over IRE1β” value on IRE1β (ERN2) (kinase binding IC50s) is reported as 2 fold.

In the case of `CCOC(=O)CCc1c(C)n(C(=O)c2ccccc2)c2ccc(Br)cc12` [IAPD1], the “treatment concentration below which stabilizing effects are negligible (CETSA)” value at IRE1α in A549 cells (A549 cells) is recorded as “lower than 2.22 μM”. Besides, at IRE1α in A549 cells (A549 cells treated 4 h), the “thermal stabilization of cellular IRE1α, CETSA” value is on record as “dose-dependently stabilized; also recorded: concentration-dependently stabilized; also recorded: concentration-dependently increased”.
